Source: patent US20070066505A1, “Anthocyanases as detergent additives” (priority 2005, published 2007)
Like-named read-outs stand apart in the source and are kept apart here.

Experiments:
[1] = system: Debaryomyces vanrijiae anthocyanase (DVantp, enzyme-4), native; experiment: Km determination via β-glucosidase activity, anthocyanase of D. vanrijiae (enzyme-4); type: biochemical; settings: read-out: Km value for cellobiose; established data
From the text: Moreover, the molecular weight and the isoelectric point were taken from literature (A. Belancic et al., J. Agric. Food Chem., 51: 1453-1459).

[2] = system: Debaryomyces hansenii anthocyanase (Dantp, enzyme-2), native; experiment: Km determination via β-glucosidase activity, anthocyanase of D. hansenii (enzyme-2); type: biochemical; settings: read-out: Km value for cellobiose; native enzyme-2
Method: The biochemical examinations of the anthocyanase (enzyme-2) of D. hansenii were performed corresponding to the anthocyanases examined up to then. Thus, their biochemical parameters were determined by means of β-glucosidase activity determinations. […] D. hansenii anthocyanase has a temperature optimum of 55° C. and a pH optimum of 5.0. […] Furthermore, with this yeast, too, one started to establish the substrate spectrum.

[3] = system: Pichia etchellsii anthocyanase (Pantp, enzyme-5), native; experiment: Km determination via β-glucosidase activity, anthocyanase of P. etchellsii (enzyme-5); type: biochemical; settings: native enzyme-5
Method: The biochemical examinations of the anthocyanase (enzyme-5) of P. etchellsii were performed analogously to the anthocyanases examined up to then.
The temperature optimum was 50° C. and the optimal pH value was 6.5.

[4] = substrate: O=[N+]([O-])c1ccc(O[C@@H]2O[C@H](CO)[C@@H](O)[C@H](O)[C@H]2O)cc1; experiment: Km determination, recombinant anthocyanase (r-enzyme-1) of C. molischiana; type: biochemical, Candida molischiana; settings: other: recombinant anthocyanase (r-enzyme-1); pH 5.5
Method: (§1) A. adeninivorans G1211/pAL-ALEU2m-BGLN was tested for the presence of recombinant anthocyanase (Bglnp-r-enz-1). For doing so, the recombinant enzyme was isolated, purified and biochemically characterized.
(§2) The recombinant anthocyanase has parameters very similar to those of C. molischiana enzyme (FIG. 9 and FIG. 10).
(§3) The temperature optimum was established at 40° C. The temperature range in which this anthocyanase was still has more than 80% activity was between 37.5° C. and 50° C. The optimum pH value was 4.0. However, the recombinant anthocyanase has an essentially broader pH tolerance range than the anthocyanase synthesized in C. molischiana. Thus, its activity was still 80% with a pH value of 5.5.

[5] = substrate: OC[C@H]1O[C@@H](O[C@H]2[C@H](O)[C@@H](O)C(O)O[C@@H]2CO)[C@H](O)[C@@H](O)[C@@H]1O; experiment: as above; type: biochemical, Candida molischiana; settings: other: recombinant anthocyanase (r-enzyme-1); pH 5.5
Method: as §1, §2, §3

`OC[C@H]1O[C@@H](O[C@H]2[C@H](O)[C@@H](O)C(O)O[C@@H]2CO)[C@H](O)[C@@H](O)[C@@H]1O` (stereo partly drawn) [cellobiose] was tested, and the Km [1] was 8.3 mM, the Km [2] was 16.3 mM and the Km ([3]; read-out: Km value for cellobiose) was 84.5 mM.

For `O=[N+]([O-])c1ccc(O[C@@H]2O[C@H](CO)[C@@H](O)[C@H](O)[C@H]2O)cc1` [pNPG], the Km ([3]; read-out: Km value for pNPG) was 59.7 mM.

B1: Candida molischiana anthocyanase (anthocyanin-β-glucosidase), recombinant, produced in Arxula adeninivorans (r-enzyme-1, rBglnp) (Kuraishia capsulata) (protein)
chain: KNISKAEMENLEHWWSYGRSDPVYPSPEISGLGDWQFAYQRAREIVALMTNEEKTNLTFGSSGDTGCSGMISDVPDVDFPGLCLQDAGNGVRGTDMVNAYASGLHVGASWNRQLAYDRAVYMGAEFRHKGVNVLLGPVVGPIGRVATGGRNWEGFTNDPYLAGALVYETTKGIQENVIACTKHFIGNEQETNRNPSGTYNQSVSANIDDKTMHELYLWPFQDSVRAGLGSIMGSYNRVNNSYACKNSKVLNGLLKSELGFQGFVVSDWGGQHTGIASANAGLDMAMPSSTYWEEGLIEAVKNGTVDQSRLDDMATRIIAAWYKYARLDDPGFGMPVSLAEDHELVDARDPAAASTIFQGAVEGHVLVKNENALPLKKPKYISLFGYDGVSTDVNTVGGGFSFFSFDVKAIENKTLISGGGSGTNTPSYVDAPFNAFVAKAREDNTFLSWDFTSAEPVANPASDACIDFINAAASEGYDRPNLADKYSDKLVEAVASQCSNTIVVIHNAGIRLVDNWIEHENVTGVILAHLPGQDTGTSLIEVLYGNQSPSGRLPYTVAKKASDYGGLLWPTEPEGDLDLYFPQSNFTEGVYIDYKYFIQKNITPRYEFGYGLTYTTFDYSELEVDAITNQSYLPPDCTIEEGGAKSLWDIVATVKFTVTNTGDVAAAEVPQLYVGIPNGPPKVLRGFDKKLIHPGQSEEFVFELTRRDLSTWDVVAQNWGLQAGTYQFYVGRSVFDVPLTSALVFTN
For B1, the Km [4] was 5.56 mM and the Km [5] was 58.27 mM.
